“And” between values parts separate entries of the source, which are not always exact repeats. Identical values can stand only once.
How the values were obtained:
[1] = Solubility and stability of lyophilized DOXO-EMCH reconstituted in diluents at 10 mg/mL; assay type: physicochemical; conditions: for pH: ambient conditions
Method: (§1) To analyze DOXO-EMCH's behavior in solution, a reversed-phase (RP) HPLC method for quantitation of DOXO-EMCH and various impurities and degradation products was utilized. Samples (1.0 μL injection volume) were assayed on an HPLC system fitted with a Phenomenex Gemini C18 column 100×2.0 mm, 3 μm at a flow rate of 0.3 mL/min. The mobile phase used was an acetate/acetonitrile gradient. The degradation product EMCH could not be detected using the above HPLC method, and was therefore determined using a liquid chromatography-mass spectrometry (LC-MS) method.
Having established preliminary information on DOXO-EMCH's properties when dissolved in NS, LR, and D5W, a follow-up study was designed to evaluate (1) the solubility and stability of DOXO-EMCH in selected diluents upon reconstitution and (2) the subsequent stability of various IV Admixtures. Diluents included Sterile Water for Injection (SWFI), Lactated Ringers Solution (LR), and 50% (v/v) ethanol/SWFI.
The study evaluating solubility and stability of lyophilized DOXO-EMCH reconstituted in SWFI, LR, and 50% (v/v) ethanol/SWFI was conducted using a target DOXO-EMCH concentration of 10 mg/mL. To obtain a 10 mg/mL concentration, 20 mL of diluent was added to a vial containing 200 mg of lyophilized DOXO-EMCH, and the vial was gently swirled to dissolve the contents and obtain a homogeneous mixture. The sample was mixed and visually inspected for complete reconstitution to a clear solution for a) approximately 30 seconds, b) approximately 60 seconds, and c) 120 seconds, then up to a total of 10 minutes. If more than 120 seconds were required for visual clarity, the vial may have been intermittently swirled up to a maximum of 10 minutes. Duplicate vials were prepared for each study. Each vial was assessed 10 minutes and 20 minutes after the addition of reconstitution diluent for visual appearance of the reconstituted solution and sampled at these time points for determination of DOXO-EMCH content, doxorubicin content, and solution pH. If a given diluent was determined to provide acceptable solubilization and stability of the vial contents after 20 minutes at ambient conditions, the diluent proceeded directly to part 2 of the study.
The reconstituted solution was evaluated for color, clarity, and absence of insoluble material in the vial after every 30 seconds of mixing. Following addition of the reconstituted drug product solution to the IV bag, the resulting IV Admixture was evaluated for color, clarity, and absence of any insoluble material immediately after mixing and at each analytical time point. The amount (area %) of the degradation product doxorubicin was determined at each time point.

[2] = IV bag solution stability study of DOXO-EMCH API (0.9% NaCl, D5W, LR); assay type: physicochemical; conditions: for solubility: ~2 mg/mL
Method: as §1
To obtain baseline data on the stability of DOXO-EMCH at the point of use, a study was designed to determine degradation of DOXO-EMCH when combined with candidate intravenous (IV) bag solutions. IV bag solutions including Dextrose 5% in Water (D5W), Lactated Ringers (LR), and Sodium Chloride Solution 0.9% (Normal Saline; NS) were used. 100 mg of DOXO-EMCH active pharmaceutical ingredient (API) were dissolved in 50 mL of the IV bag solution for a concentration of ˜2 mg/mL DOXO-EMCH API. The IV bag solutions containing API were then aliquoted in glass vials. The vials were stored at 25° C. in a stability chamber for the length of the experiment. Prior to the beginning of the IV bag stability study, all IV bag solutions were tested for pH and the presence of any peaks interfering with DOXO-EMCH or any degradation peaks of interest. Samples were pulled at 0 hr, 2 hr, 4 hr, and 6 hr time intervals and tested for pH and in duplicate by HPLC.
Tables 8-10 below list the results for the IV bag study using 0.9% NaCl, D5W, and Lactated Ringer's Solution. In summary, the 0.9% NaCl and Lactated Ringer's solutions met the goal of less than 3% doxorubicin over 3-5 hours. […] The sample was opaque and precipitated material visibly settled over a 2-hour period. […] The samples were mixed well before dilution of each sample for HPLC assay, but non-homogeneity of these samples is reflected in the DOXO-EMCH recovery values for those two IV bag solutions. […] The pH for D5W was the lowest of all the IV bag solutions tested.

mice = conditions: acute and repeat-dose; cited from earlier work
rats = conditions: acute and repeat-dose; cited from earlier work
dogs = conditions: acute and repeat-dose; cited from earlier work
[3] = ~2 mg/mL API in 0.9% NaCl IV solution, 25° C., 0 hr
[4] = ~2 mg/mL API in 0.9% NaCl IV solution, 25° C., 2 hr
[5] = ~2 mg/mL API in 0.9% NaCl IV solution, 25° C., 4 hr
[6] = ~2 mg/mL API in 0.9% NaCl IV solution, 25° C., 6 hr
[7] = ~2 mg/mL API in D5W IV solution, 25° C., 0 hr
[8] = ~2 mg/mL API in D5W IV solution, 25° C., 2 hr
[9] = ~2 mg/mL API in D5W IV solution, 25° C., 4 hr
[10] = ~2 mg/mL API in D5W IV solution, 25° C., 6 hr
[11] = ~2 mg/mL API in LR IV solution, 25° C., 0 hr
[12] = ~2 mg/mL API in LR IV solution, 25° C., 2 hr
[13] = ~2 mg/mL API in LR IV solution, 25° C., 4 hr
[14] = ~2 mg/mL API in LR IV solution, 25° C., 6 hr

COc1cccc2c1C(=O)c1c(O)c3c(c(O)c1C2=O)C[C@@](O)(/C(CO)=N/NC(=O)CCCCCN1C(=O)C=CC1=O)C[C@@H]3O[C@H]1C[C@H](N)[C@H](O)[C@H](C)O1.Cl [DOXO-EMCH]
solubility ([1]; in ethanol:water): completely soluble
time to go into solution ([1]; in ethanol:water): within less than a minute
mixing time until solutions appeared visually clear ([1]; reconstituted in 50:50 ethanol:water at 10 mg/mL): 120 s
pH ([1]; reconstituted in 50:50 ethanol:water at 10 mg/mL, 10 minutes): 5.9
pH ([1]; reconstituted in 50:50 ethanol:water at 10 mg/mL, 20 minutes): 5.7 and 5.8
mixing time until solutions appeared visually clear ([1]; reconstituted in LR at 10 mg/mL): 120 s
pH ([1]; reconstituted in LR at 10 mg/mL, 10 minutes): 6.0 and 5.9
pH ([1]; reconstituted in LR at 10 mg/mL, 20 minutes): 5.9 and 5.8
pH ([1]; reconstituted in SWFI at 10 mg/mL, 10 minutes): 5.4 and 5.3
pH ([1]; reconstituted in SWFI at 10 mg/mL, 20 minutes): 5.1 and 5.5
mixing time until solutions appeared visually clear ([1]; reconstituted in SWFI at 10 mg/mL, a few undissolved particles remained): 90 to 120 s
doxorubicin over 3-5 hours (goal) ([2]; 0.9% NaCl IV solution, 25° C.): less than 3%
degradation over a 6 hour period ([2]; D5W solution, 25° C.): significant degradation of DOXO-EMCH and formation of doxorubicin
doxorubicin over 3-5 hours (goal) ([2]; Lactated Ringer's solution, 25° C.): less than 3%
solubility ([2]; in 0.9% NaCl): not completely soluble
solubility ([2]; in D5W): completely soluble
solubility ([2]; in Lactated Ringer's): not completely soluble
Doxorubicin [2, 3]: 0.3 wt %
pH [2, 3]: 6.5
Doxorubicin [2, 4]: 0.9 wt %
pH [2, 4]: 6.0
Doxorubicin [2, 5]: 2.1 wt %
pH [2, 5]: 5.6
Doxorubicin [2, 6]: 2.6 wt %
pH [2, 6]: 5.7
Doxorubicin [2, 7]: 1.6 wt %
pH [2, 7]: 5.5
Doxorubicin [2, 8]: 5.8 wt %
pH [2, 8]: 5.0
Doxorubicin [2, 9]: 11.2 wt %
pH [2, 9]: 4.9
Doxorubicin [2, 10]: 16.8 wt %
pH [2, 10]: 4.8
Doxorubicin [2, 11]: 0.2 wt %
pH [2, 11]: 6.3
Doxorubicin [2, 12]: 0.5 wt %
pH [2, 12]: 6.1
Doxorubicin [2, 13]: 0.9 wt %
pH [2, 13]: 6.0
Doxorubicin [2, 14]: 1.6 wt %
pH [2, 14]: 5.9
tolerance compared to doxorubicin (mice): significantly higher tolerance
tolerance compared to doxorubicin (rats): significantly higher tolerance
tolerance compared to doxorubicin (dogs): significantly higher tolerance
